Consider 27 molecules from patent US9693997B2, “Antiviral compounds” (priority 2013, dated 2017).

Holding throughout (assay): microbe, parasite or virus in culture
In experiment [1] the test system is Pseudotyped HCV GT1b particles (HCVpp), entry into Huh7-high CD81 cells. The experiment is classed as cell-based, HCV GT1b Con1 strain. As to conditions: Hepatitis C virus, GT1B, 72 h, read-out: HCVpp GT-1b (EC50, μM).
Experiment [2] concerns Pseudotyped HCV GT1a particles (HCVpp), entry into Huh7-high CD81 cells. The experiment is classed as cell-based, HCV GT1a H77 strain. The conditions noted are these: Hepatitis C virus, 72 h, read-out: HCVpp GT-1a (EC50, μM).
Experiment [3] concerns pseudotyped VSV G particles (VSVpp) in Huh7-high CD81 cells. The experiment is classed as cell-based, vesicular stomatitis virus. The conditions noted are these: Vesicular stomatitis virus, 72 h, read-out: VSVpp (EC50, μM).

As for `CS(=O)(=O)c1cccc(-c2c(Cl)cc(Nc3n[nH]c(N)n3)cc2Cl)c1` [Compound 114, N-3-(2,6-Dichloro-3′-methanesulfonyl-biphenyl-4-yl)-1H-[1,2,4]triazole-3,5-diamine], the EC50 in experiment [1] was 0.069 µM; in experiment [2], 0.01 µM; in experiment [3], 18.2 µM.
The matching figures for `CN(C)C(=O)c1cccc(-c2c(Cl)cc(Nc3n[nH]c(N)n3)cc2Cl)c1` [Compound 115, 4′-(5-Amino-1H-[1,2,4]triazol-3-ylamino)-2′,6′-dichloro-biphenyl-3-carboxylic acid dimethylamide]: 0.107 µM, 0.007 µM and 34.8 µM.
The matching figures for `CNC(=O)c1ccc(-c2c(Cl)cc(Nc3n[nH]c(N)n3)cc2Cl)cc1` [Compound 116, 4′-(5-Amino-1H-[1,2,4]triazol-3-ylamino)-2′,6′-dichloro-biphenyl-4-carboxylic acid methylamide]: 0.086 µM, 0.002 µM and 29.4 µM.
In the case of `CNC(=O)c1cccc(-c2c(Cl)cc(Nc3n[nH]c(N)n3)cc2Cl)c1` [Compound 117, 4′-(5-Amino-1H-[1,2,4]triazol-3-ylamino)-2′,6′-dichloro-biphenyl-3-carboxylic acid methylamide], the EC50 in experiment [1] turned out to be 0.218 µM; in experiment [2], 0.011 µM; in experiment [3] it was 26.1 µM.
Take `CNS(=O)(=O)c1ccc(-c2c(Cl)cc(Nc3n[nH]c(N)n3)cc2Cl)cc1` [Compound 118, 4′-(5-Amino-1H-[1,2,4]triazol-3-ylamino)-2′,6′-dichloro-biphenyl-4-sulfonic acid methylamide]: the results for the EC50 in experiment [1], in experiment [2] and in experiment [3] were 0.013 µM, 0.004 µM and 4.24 µM, respectively.
As to `CC(C)S(=O)(=O)c1ccc(-c2c(Cl)cc(Nc3n[nH]c(N)n3)cc2Cl)cc1` [Compound 122, N-3-[2,6-Dichloro-4′-(propane-2-sulfonyl)-biphenyl-4-yl]-1H-[1,2,4]triazole-3,5-diamine], the 50% effective concentration (EC50) in experiment [1] came to 0.024 µM; in experiment [2], 0.004 µM; in experiment [3], 12.1 µM.
The matching figures for `CN(C)S(=O)(=O)c1ccc(-c2c(Cl)cc(Nc3n[nH]c(N)n3)cc2Cl)cc1` [Compound 123, 4′-(5-Amino-1H-[1,2,4]triazol-3-ylamino)-2′,6′-dichloro-biphenyl-4-sulfonic acid dimethylamide]: 0.042 µM, 0.002 µM and 11 µM.
As for `Nc1nc(Nc2ccc(-c3ccccc3)c(Cl)c2)n[nH]1` [Compound 144, N*3*-(2-Chloro-biphenyl-4-yl)-1H-[1,2,4]triazole-3,5-diamine], the results for the half-maximal effective concentration (EC50) in experiment [1], in experiment [2] and in experiment [3] were 2.92 µM, 0.333 µM and 34.8 µM, respectively.
The matching figures for `Nc1nc(Nc2ccc(-c3ccc(F)cc3)c(Cl)c2)n[nH]1` [Compound 145, N*3*-(2-Chloro-4′-fluoro-biphenyl-4-yl)-1H-[1,2,4]triazole-3,5-diamine]: 6.02 µM, 0.532 µM and 39.1 µM.
For the molecule `Nc1nc(Nc2ccc(-c3ccc(F)c(F)c3)c(Cl)c2)n[nH]1` [Compound 147, N*3*-(2-Chloro-3′,4′-difluoro-biphenyl-4-yl)-1H-[1,2,4]triazole-3,5-diamine], the EC50 in experiment [1] is 6.12 µM; in experiment [2] it was 0.621 µM; in experiment [3], 47.2 µM.
Regarding `Nc1nc(Nc2ccc(-c3cccc(F)c3)c(Cl)c2)n[nH]1` [Compound 148, N*3*-(2-Chloro-3′-fluoro-biphenyl-4-yl)-1H-[1,2,4]triazole-3,5-diamine], the EC50 in experiment [1] amounted to 3.34 µM; in experiment [2], 0.301 µM; in experiment [3], 33.8 µM.
The matching figures for `NC(=O)c1ccc(-c2c(Cl)cc(Nc3n[nH]c(N)n3)cc2Cl)cc1` [Compound 159, 4′-(5-amino-1H-1,2,4-triazol-3-ylamino)-2′,6′-dichlorobiphenyl-4-carboxamide]: 0.164 µM, 0.005 µM and 4.62 µM.
As for `COc1ccc(-c2c(Cl)cc(Nc3n[nH]c(N)n3)cc2C(F)(F)F)cc1S(=O)(=O)N1CCN(C(=O)OC(C)(C)C)CC1` [Compound 166, tert-butyl 4-(4′-(5-amino-1H-1,2,4-triazol-3-ylamino)-2′-chloro-4-methoxy-6′-(trifluoromethyl)biphenyl-3-ylsulfonyl)piperazine-1-carboxylate], the results for the half-maximal effective concentration (EC50) in experiment [1], in experiment [2] and in experiment [3] were 0.005 µM, 0.003 µM and > 10 µM, respectively.
The matching figures for `Nc1nc(Nc2cc(Cl)c(-c3ccc(S(=O)(=O)N4CCCC4)cc3)c(C(F)(F)F)c2)n[nH]1` [Compound 170, N3-(2-chloro-4′-(pyrrolidin-1-ylsulfonyl)-6-(trifluoromethyl)biphenyl-4-yl)-1H-1,2,4-triazole-3,5-diamine]: 0.026 µM, 0.02 µM and 14.1 µM.
Consider `Nc1nc(Nc2cc(Cl)c(-c3ccc(S(=O)(=O)N[C@H]4C[C@H](O)C4)cc3)c(C(F)(F)F)c2)n[nH]1` [Compound 173, 4′-(5-amino-1H-1,2,4-triazol-3-ylamino)-2′-chloro-N-(trans-3-hydroxycyclobutyl)-6′-(trifluoromethyl)biphenyl-4-sulfonamide], for which the EC50 in experiment [1] was 0.019 µM; in experiment [2] it was 0.007 µM; in experiment [3] it was > 10 µM.
With `COc1ccc(-c2c(Cl)cc(Nc3n[nH]c(N)n3)cc2C(F)(F)F)cc1S(=O)(=O)N1CCOCC1` [Compound 177, N3-(2-chloro-4′-methoxy-3′-(morpholinosulfonyl)-6-(trifluoromethyl)biphenyl-4-yl)-1H-1,2,4-triazole-3,5-diamine], the concentration giving a half-maximal response (EC50) in experiment [1] was found to be 0.018 µM; in experiment [2], 0.003 µM; in experiment [3] it was 23.4 µM.
The matching figures for `COc1cc(-c2c(Cl)cc(Nc3n[nH]c(N)n3)cc2C(F)(F)F)ccc1S(=O)(=O)NC(C)(C)C` [Compound 179, 4′-(5-amino-1H-1,2,4-triazol-3-ylamino)-N-tert-butyl-2′-chloro-3-methoxy-6′-(trifluoromethyl)biphenyl-4-sulfonamide]: 0.02 µM, 0.002 µM and 8.55 µM.
Take `Nc1nc(Nc2cc(Cl)c(-c3ccc(S(=O)(=O)N[C@H]4CC[C@H](O)CC4)cc3)c(C(F)(F)F)c2)n[nH]1` [Compound 184, 4′-(5-amino-1H-1,2,4-triazol-3-ylamino)-2′-chloro-N-(trans-4-hydroxycyclohexyl)-6′-(trifluoromethyl)biphenyl-4-sulfonamide]: the EC50 in experiment [1] was 0.05 µM; in experiment [2], 0.028 µM; in experiment [3] it was > 10 µM.
The matching figures for `CN(C)S(=O)(=O)c1ccc(-c2c(Cl)cc(Nc3n[nH]c(N)n3)cc2C(F)(F)F)cc1` [Compound 185, 4′-(5-amino-1H-1,2,4-triazol-3-ylamino)-2′-chloro-N,N-dimethyl-6′-(trifluoromethyl)biphenyl-4-sulfonamide]: 0.052 µM, 0.015 µM and 11.7 µM.
The matching figures for `CS(=O)(=O)NCc1ccc(-c2c(Cl)cc(Nc3n[nH]c(N)n3)cc2C(F)(F)F)cc1` [Compound 186, N-((4′-(5-amino-1H-1,2,4-triazol-3-ylamino)-2′-chloro-6′-(trifluoromethyl)biphenyl-4-yl)methyl)methanesulfonamide]: 0.038 µM, 0.011 µM and 19.7 µM.
The matching figures for `CS(=O)(=O)c1ccc(-c2c(Cl)cc(Nc3n[nH]c(N)n3)cc2C(F)(F)F)cc1` [Compound 187, N3-(2-chloro-4′-(methylsulfonyl)-6-(trifluoromethyl)biphenyl-4-yl)-1H-1,2,4-triazole-3,5-diamine]: 0.046 µM, 0.016 µM and 1.58 µM.
As for `COc1ccc(-c2c(Cl)cc(Nc3n[nH]c(N)n3)cc2C(F)(F)F)cc1S(=O)(=O)NC(C)(C)CO` [Compound 218, 4′-(5-Amino-1H-[1,2,4]triazol-3-ylamino)-6′-chloro-4-methoxy-2′-trifluoromethyl-biphenyl-3-sulfonic acid (2-hydroxy-1,1-dimethyl-ethyl)-amide], the EC50 amounted to 0.005 µM in experiment [1], 0.003 µM in experiment [2] and 20.3 µM in experiment [3].
In the case of `Nc1nc(Nc2cc(Cl)c(-c3ccc(NC(=O)CN4CCS(=O)(=O)CC4)cc3)c(C(F)(F)F)c2)n[nH]1` [Compound 240], the results for the half-maximal effective concentration (EC50) in experiment [1], in experiment [2] and in experiment [3] were 0.171 µM, 0.011 µM and > 10 µM, respectively.
For `CS(=O)(=O)Nc1ccc(-c2c(F)cc(Nc3nc(N)n[nH]3)cc2C(F)(F)F)cc1` [Compound 242, N-[4′-(5-Amino-2H-[1,2,4]-triazol-3-ylamino)-6′-fluoro-2′-trifluoromethyl-biphenyl-4-yl]-methanesulfonamide], the 50% effective concentration (EC50) was 0.113 µM in experiment [1], 0.061 µM in experiment [2] and > 10 µM in experiment [3].
Regarding `Nc1nc(Nc2cc(Cl)c(-c3ccc4c(c3)CC(=O)N4)c(Cl)c2)n[nH]1` [Compound 254], the values for the concentration giving a half-maximal response (EC50) in experiment [1], in experiment [2] and in experiment [3] were 0.051 µM, 0.003 µM and 12.9 µM, respectively.
The matching figures for `Nc1nc(Nc2cc(Cl)c(-c3ccc(OC[C@@H]4CCCN4)cc3)c(Cl)c2)n[nH]1` [Compound 265, N*3*-[2,6-Dichloro-4′-((S)-1-pyrrolidin-2-ylmethoxy)-biphenyl-4-yl]-1H-[1,2,4]triazole-3,5-diamine]: 0.063 µM, 0.005 µM and 17.9 µM.
For `Nc1nc(Nc2cc(Cl)c(-c3ccc(F)cc3)c(Cl)c2)n[nH]1` [Compound 286, N3-(2,6-dichloro-4′-fluorobiphenyl-4-yl)-1H-1,2,4-triazole-3,5-diamine], the EC50 in experiment [1] was 0.64 µM; in experiment [2], 0.018 µM; in experiment [3] it was 13.6 µM.
